Experimental data reported in the NIST ThermoML archive (doi:10.1021/je060271a).
± gives the expanded uncertainty stated by the source.

Settings: 303.15 K, Liquid, Vibrating tube method

CCCCCC(=O)OCC(COC(=O)CCCCC)(COC(=O)CCCCC)COC(=O)CCCCC [pentaerythritol tetrahexanoate]
Settings	mass density [kg/m3]
941.9 kPa	988.9 ± 1.2
951.9 kPa	989 ± 1.2
958.5 kPa	988.9 ± 1.2
967.6 kPa	989 ± 1.2
978.3 kPa	988.9 ± 1.2
988.8 kPa	988.9 ± 1.2
998 kPa	988.9 ± 1.2
1009.3 kPa	989 ± 1.2
1019.8 kPa	989 ± 1.2
1029.2 kPa	989 ± 1.2
1039.1 kPa	989.1 ± 1.2
1048.9 kPa	989 ± 1.2
1061.2 kPa	989 ± 1.2
1072 kPa	989 ± 1.2
1082 kPa	989.1 ± 1.2
1093.8 kPa	989.1 ± 1.2
1103.9 kPa	989.2 ± 1.2
1113.5 kPa	989 ± 1.2
1123.5 kPa	989.2 ± 1.2
1135.9 kPa	989 ± 1.2
1146.3 kPa	989 ± 1.2
1156.2 kPa	989.1 ± 1.2
1166.8 kPa	989.1 ± 1.2
1179.7 kPa	989.1 ± 1.2
1189.9 kPa	989.1 ± 1.2
1200.7 kPa	989.1 ± 1.2
1210.9 kPa	989.1 ± 1.2
1223.8 kPa	989.2 ± 1.2
1234.4 kPa	989.1 ± 1.2
1245.1 kPa	989.2 ± 1.2
1258.2 kPa	989.1 ± 1.2
1269.3 kPa	989.2 ± 1.2
1280 kPa	989.2 ± 1.2
1291.5 kPa	989.2 ± 1.2
1305.2 kPa	989.2 ± 1.2
1316.3 kPa	989.2 ± 1.2
1327.8 kPa	989.1 ± 1.2
1339.4 kPa	989.3 ± 1.2
1353.7 kPa	989.2 ± 1.2
1365.5 kPa	989.2 ± 1.2
1377.5 kPa	989.2 ± 1.2
1391.9 kPa	989.3 ± 1.2
1719.8 kPa	989.5 ± 1.2
1738.4 kPa	989.5 ± 1.2
1753.5 kPa	989.5 ± 1.2
1768.6 kPa	989.6 ± 1.2
1784.2 kPa	989.5 ± 1.2
1803 kPa	989.6 ± 1.2
1854.3 kPa	989.5 ± 1.2
1870.3 kPa	989.5 ± 1.2
1886.5 kPa	989.6 ± 1.2
1903.5 kPa	989.5 ± 1.2
1923.6 kPa	989.6 ± 1.2
2090.4 kPa	989.6 ± 1.2
2108.2 kPa	989.7 ± 1.2
2167.4 kPa	989.7 ± 1.2
2229.2 kPa	989.8 ± 1.2
2248.4 kPa	989.7 ± 1.2
2292.3 kPa	989.8 ± 1.2
2312.5 kPa	989.8 ± 1.2
2337.4 kPa	989.9 ± 1.2
2355.8 kPa	989.8 ± 1.2
2380.4 kPa	989.9 ± 1.2
2401.1 kPa	989.9 ± 1.2
2421.9 kPa	989.8 ± 1.2
2443 kPa	989.9 ± 1.2
2468.5 kPa	990 ± 1.2
2489.7 kPa	990 ± 1.2
2511 kPa	990 ± 1.2
2536.5 kPa	989.9 ± 1.2
2558.6 kPa	990 ± 1.2
2580.8 kPa	990 ± 1.2
2603.5 kPa	990 ± 1.2
2631.6 kPa	990 ± 1.2
2649.5 kPa	990.1 ± 1.2
2676.9 kPa	990 ± 1.2
2699.1 kPa	990 ± 1.2
2726.5 kPa	990 ± 1.2
2749.6 kPa	990.2 ± 1.2
2772.3 kPa	990.1 ± 1.2
2795.2 kPa	990.1 ± 1.2
2823.5 kPa	990.2 ± 1.2
2846.9 kPa	990.2 ± 1.2
2870.6 kPa	990.2 ± 1.2
2899.1 kPa	990.1 ± 1.2
2923.3 kPa	990.2 ± 1.2
2948 kPa	990.2 ± 1.2
2972.9 kPa	990.3 ± 1.2
3001.9 kPa	990.2 ± 1.2
3026.2 kPa	990.3 ± 1.2
3050.9 kPa	990.3 ± 1.2
3075.6 kPa	990.3 ± 1.2
3105.6 kPa	990.3 ± 1.2
3130.3 kPa	990.3 ± 1.2
3156 kPa	990.4 ± 1.2
3181.3 kPa	990.4 ± 1.2
3212.3 kPa	990.4 ± 1.2
3237.8 kPa	990.4 ± 1.2
3263.7 kPa	990.4 ± 1.2
3294.7 kPa	990.4 ± 1.2
3320.9 kPa	990.4 ± 1.2
3346.9 kPa	990.6 ± 1.2
3378.1 kPa	990.5 ± 1.2
3404.7 kPa	990.5 ± 1.2
3430.9 kPa	990.6 ± 1.2
3457.8 kPa	990.7 ± 1.2
3490.4 kPa	990.6 ± 1.2
3517.7 kPa	990.5 ± 1.2
3545.6 kPa	990.5 ± 1.2
3578.7 kPa	990.6 ± 1.2
3606.3 kPa	990.7 ± 1.2
3634.2 kPa	990.5 ± 1.2
3662.6 kPa	990.7 ± 1.2
3690.5 kPa	990.7 ± 1.2
3724.1 kPa	990.7 ± 1.2
3752.7 kPa	990.9 ± 1.2
3781.8 kPa	990.7 ± 1.2
3810.6 kPa	990.8 ± 1.2
3844.5 kPa	990.8 ± 1.2
3872.4 kPa	990.8 ± 1.2
3901 kPa	990.8 ± 1.2
3935 kPa	990.9 ± 1.2
3963.4 kPa	990.9 ± 1.2
3991.9 kPa	990.9 ± 1.2
4026.4 kPa	990.9 ± 1.2
4056 kPa	991 ± 1.2
4084.6 kPa	991 ± 1.2
4113.5 kPa	991 ± 1.2
4146.8 kPa	991 ± 1.2
4175 kPa	991.1 ± 1.2
4876.2 kPa	991.5 ± 1.2
4893.7 kPa	991.5 ± 1.2
4923.8 kPa	991.5 ± 1.2
4939.3 kPa	991.6 ± 1.2
4955.2 kPa	991.5 ± 1.2
4973.4 kPa	991.6 ± 1.2
4988.8 kPa	991.5 ± 1.2
5003.5 kPa	991.5 ± 1.2
5021.5 kPa	991.7 ± 1.2
5037.1 kPa	991.6 ± 1.2
5052.1 kPa	991.7 ± 1.2
5067.7 kPa	991.7 ± 1.2
5086.4 kPa	991.5 ± 1.2
5101.8 kPa	991.6 ± 1.2
5117.7 kPa	991.7 ± 1.2
